Assay results as given in patent US10022527B2, “Immersion device” (BSN medical GmbH, priority 2013, dated 2018).

How the values were obtained:
[1] = Stability test of the NO content of the UV-generated NO-containing buffer solution (chemiluminescence detection); type: physicochemical; details: approximately 150 μM NO in buffered tap water pH 7.0 with 1.45 mM NaNO2 and 10 mM Na ascorbate; over a time span of 20 minutes; not statistically significant
Experimental: (§1) The NO-generating unit contained tap water, buffer salts (8 g/l NaCl+0.2 g/l KCl+1.424 g/l Na2HPO4+0.2 g/l KH2PO4, pH=7.0), 1.45 mM NaNO2 and 10 mM Na ascorbate.
(§2) UV radiation of this solution containing nitrite yielded a solution that contained approximately 150 μM NO. The stability of the generated NO and the occurrence of oxidation products were analyzed on the basis of this solution. Moreover, the effect in terms of perfusion and erythema formation was tested within the scope of its use as a foot bath.
This solution first underwent a stability test, that is to say, it was ascertained how the content of NO changes over a time span of 20 minutes. Every two minutes an aliquot of 10 ml of the bathing solution was pipetted into a flask (volume capacity of 175 ml) through which helium gas was flowing (100 ml/min) and which had already been filled with 40 ml of a PBS solution (pH of 7.4). During the entire procedure, the helium-gas mixtures escaping from the flask were conveyed directly into an NO analysis unit (Chemiluminescence Detector—CLD 822 Sr made by Eco Physics of Duernten, Switzerland) which detected and recorded the NO amounts in ppm (parts per million) that were contained in the gas mixture (in this context, also see Opländer et al. 2010—Nitric Oxide—Bio. Ch. 23: 275-283). […]

[2] = cited from earlier work
[3] = Generation of oxidation products (NO2) in the NO-containing solution; type: physicochemical; details: same solution
Experimental: as §1, §2
This solution first underwent a stability test, that is to say, it was ascertained how the content of NO changes over a time span of 20 minutes. […] During the entire procedure, the helium-gas mixtures escaping from the flask were conveyed directly into an NO analysis unit (Chemiluminescence Detector—CLD 822 Sr made by Eco Physics of Duernten, Switzerland) which detected and recorded the NO amounts in ppm (parts per million) that were contained in the gas mixture (in this context, also see Opländer et al. 2010—Nitric Oxide—Bio. Ch. 23: 275-283).
Using the solution described above, parallel to the above-mentioned NO detection, the amount of nitrogen dioxide radicals, as the most important oxidation product of NO, was detected during the same measurement. […]

[4] = cited from earlier work; remark: listed apart in the source

SMILES: [N]=O [NO, nitric oxide]
- drop of NO content [1]: about 10%
- maximum solubility of NO in aqueous solutions [2]: approximately 2 mM
- concentration of NO2 (oxidation product of NO) ([3]; occurred only after 10 minutes): ~1.5 ppm
- measured NO2 values compared with the initial values ([3]; up to the maximum time value of 20 minutes): not significantly higher than the initial values
- diffusion coefficient of NO relative to that of oxygen or carbon monoxide ([4]; at 37° C.): approximately 1.4
- diffusion path that can be achieved in the tissues ([4]; calculated on the basis of the diffusion coefficient): 500 μm
